From patent US20090275583A1, “ANTIVIRAL COMPOUNDS AND USE THEREOF” (Myriad Genetics, Incorporated, priority 2006, published 2009)
Like-named read-outs stand apart in the source and are kept apart here.

How the values were obtained:
[1] = tested on: HIV-1 laboratory strain, NL4-3; assay: MT-4 cytoprotection assay; type: cell-based
Description: The HTLV-1 transformed T cell line, MT-4, is highly susceptible to HIV-1 infection. Anti-HIV-1 agents were evaluated in this target cell line by protection from the HIV-induced cytopathic effect. In this assay, viability of both HIV-1 and mock-infected cells was assessed in a […] assay that monitors the ability of metabolically-active cells to reduce the tetrazolium salt WST-1. Cytoprotection by antiviral compounds is indicated by the positive readout of increased WST-1 cleavage.
Briefly, exponentially growing MT-4 cells were mock-infected or batch-infected with the HIV-1 laboratory strain, NL4-3, at a multiplicity of infection of 0.0005. Following a two hour infection, the cells were washed to remove unbound virus and plated in the presence of increasing concentrations of compound. After four days incubation, cytoprotection in the infected cells and compound toxicity in mock-infected cells were analyzed using the WST-1 assay.

HIV-1NL4-3 = assay: P4-MAGI assay; type: cell-based
Description: P4 cells were used to test the effects of compounds on virus fusion activity. P4 cells are HIV-1 infectable CD4^+ HeLa cells that bear the bacterial lacZ gene under the control of a minimal HIV-1 LTR. Charneau, et. al., J. Mol. Biol. 241:651-662 (1994). When these cells are infected with HIV-1, β-galactosidase is expressed due to Tat activation of the viral LTR. In this assay, P4 cells were infected with the laboratory adapted strain HIV-1NL4-3 at a multiplicity of infection of 1 in the presence of DEAE-Dextran. Immediately after addition of virus to the cells, increasing concentrations of compound were added to the cells. […] The effect on cell viability (TC50, concentration of compound that inhibits growth by 50%) was determined in mock-infected cells with the WST-1 Cell Proliferation Reagent (Roche Diagnostics).

[2] = Human immunodeficiency virus 1, NL43, MT4, 96 h, MT-4 cells, four days incubation, WST-1 readout, read-out: MT4 EC50
[3] = Human immunodeficiency virus 1, 24 h, P4 cells, 24 hour incubation, β-galactosidase expression, read-out: P4-MAGI IC50
[4] = Human immunodeficiency virus 1, NL43, less than about 100 nm, read-out: MT-4 assay EC50 (concentration of compound that reduces the virus induced cytopathic effect by 50%)
[5] = Human immunodeficiency virus 1, text statement, less than about 100 nm, read-out: P4-MAGI assay IC50

Row | SMILES | EC50 [1, 2] [nM] | IC50 (HIV-1NL4-3; [3]) [nM] | EC50 [1, 4] [nM] | IC50 (HIV-1NL4-3; [5]) [nM]
1 | C=C(C)[C@@H]1CC[C@]2(C(=O)NCc3cccc(C(=O)NCCNC(=O)OCc4ccccc4)c3)CC[C@]3(C)C(CCC4[C@@]5(C)CC[C@H](O)C(C)(C)C5CC[C@]43C)C12 (stereo partly drawn) [Example 5] | 2500 | 107 |  | 
2 | C=C(C)[C@@H]1CC[C@]2(C(=O)NCc3cccc(C(=O)NCc4cccc(C(=O)O)c4)c3)CC[C@]3(C)C(CCC4[C@@]5(C)CC[C@H](O)C(C)(C)C5CC[C@]43C)C12 (stereo partly drawn) [Example 6] | 71 | 15.6 | < 100 | < 100
3 | C=C(C)[C@@H]1CC[C@]2(C(=O)NCc3cccc(C(=O)NCc4ccc(C(=O)O)cc4)c3)CC[C@]3(C)C(CCC4[C@@]5(C)CC[C@H](O)C(C)(C)C5CC[C@]43C)C12 (stereo partly drawn) [Example 7] | 7.2 | 21.4 | < 100 | < 100
4 | C=C(C)[C@@H]1CC[C@]2(C(=O)NCc3cccc(C(=O)NCCc4ccc(C(=O)O)cc4)c3)CC[C@]3(C)C(CCC4[C@@]5(C)CC[C@H](O)C(C)(C)C5CC[C@]43C)C12 (stereo partly drawn) [Example 9] | 5.5 | 22.3 | < 100 | < 100
5 | C=C(C)[C@@H]1CC[C@]2(C(=O)NCc3cccc(C(=O)NCCc4ccccc4C(=O)O)c3)CC[C@]3(C)C(CCC4[C@@]5(C)CC[C@H](O)C(C)(C)C5CC[C@]43C)C12 (stereo partly drawn) [Example 10] | 1300 | 128 |  | 
6 | C=C(C)[C@@H]1CC[C@]2(C(=O)NCc3cccc(C(=O)NCc4ccc(O)c(C(=O)O)c4)c3)CC[C@]3(C)C(CCC4[C@@]5(C)CC[C@H](O)C(C)(C)C5CC[C@]43C)C12 (stereo partly drawn) [Example 13] | 873 | 28 |  | < 100
7 | C=C(C)[C@@H]1CC[C@]2(C(=O)NCc3cccc(C(=O)NCc4cccc(C(=O)O)c4C)c3)CC[C@]3(C)C(CCC4[C@@]5(C)CC[C@H](O)C(C)(C)C5CC[C@]43C)C12 (stereo partly drawn) [Example 17] | 87 | 32 | < 100 | < 100
8 | C=C(C)[C@@H]1CC[C@]2(C(=O)NCc3cccc(C(=O)Nc4ccc5cc(C(=O)O)ccc5c4)c3)CC[C@]3(C)C(CCC4[C@@]5(C)CC[C@H](O)C(C)(C)C5CC[C@]43C)C12 (stereo partly drawn) [Example 18] | 6100 | 108 |  | 
9 | C=C(C)[C@@H]1CC[C@]2(C(=O)NCc3cccc(C(=O)NCC(C)c4cccc(C(=O)O)c4)c3)CC[C@]3(C)C(CCC4[C@@]5(C)CC[C@H](O)C(C)(C)C5CC[C@]43C)C12 (stereo partly drawn) [Example 19] | 19 | 6.2 | < 100 | < 100
10 | C=C(C)[C@@H]1CC[C@]2(C(=O)NCc3cccc(C(=O)NCc4cccc(-c5nn[nH]n5)c4)c3)CC[C@]3(C)C(CCC4[C@@]5(C)CC[C@H](O)C(C)(C)C5CC[C@]43C)C12 (stereo partly drawn) [Example 21] | 180 | 24.8 |  | 
11 | C=C(C)[C@@H]1CC[C@]2(C(=O)NCc3cccc(C(=O)NCc4ccc(C(=O)O)cc4F)c3)CC[C@]3(C)C(CCC4[C@@]5(C)CC[C@H](O)C(C)(C)C5CC[C@]43C)C12 (stereo partly drawn) [Example 22] | 9.7 | 15.4 | < 100 | 
12 | C=C(C)[C@@H]1CC[C@]2(C(=O)NCc3cccc(C(=O)NCc4cccc(C(N)=O)c4)c3)CC[C@]3(C)C(CCC4[C@@]5(C)CC[C@H](O)C(C)(C)C5CC[C@]43C)C12 (stereo partly drawn) [Example 23] | 329 | 52.7 |  | 
13 | C=C(C)[C@@H]1CC[C@]2(C(=O)NCc3cccc(C(=O)NCc4cc(C(=O)OC)ccc4F)c3)CC[C@]3(C)C(CCC4[C@@]5(C)CC[C@H](O)C(C)(C)C5CC[C@]43C)C12 (stereo partly drawn) [Example 24] | > 10000 | 186 |  | 
14 | C=C(C)[C@@H]1CC[C@]2(C(=O)NCc3cccc(C(=O)NCc4ccc(F)c(C(=O)OC)c4)c3)CC[C@]3(C)C(CCC4[C@@]5(C)CC[C@H](O)C(C)(C)C5CC[C@]43C)C12 (stereo partly drawn) [Example 25] | 100 | 40.4 | < 100 | < 100
15 | C=C(C)[C@@H]1CC[C@]2(C(=O)NCc3cccc(C(=O)NCc4cc(C(=O)O)ccc4F)c3)CC[C@]3(C)C(CCC4[C@@]5(C)CC[C@H](O)C(C)(C)C5CC[C@]43C)C12 (stereo partly drawn) [Example 26] | 200 | 78.6 |  | < 100
